Measured values reported in patent US11122789B2, “Termite preferred resource compositions and methods” (priority 2015, dated 2021).
Read-outs that look alike come from different tables or passages of the source.

What was measured:
Format in all cases: in vivo
Coptotermes formosanus = conditions: for INSECT ACTIVIIS 0-4: scale 0 death, 4 normal behaviour; for % Mortality: 0.15 % v/v on ground Sabal palm
Method: (§1) Bioassay tubes were loaded with 0.2 g of finely ground Sabal palm materials into microtubes. One mL of dilute active ingredient (described below) was applied to the tube and fully absorbed by the palm materials. The tubes were placed in petri dishes on a 3 mm sand base. Thirty to forty workers and soldiers from the field-collected Reticulitermes and Coptotermes colonies were introduced to the petri dishes. Termite activity was evaluated on a 0-4 scale, with 0 denoting death and 4 indicating normal behaviour. Mortality was recorded weekly for up to 9 weeks, depending on survivorship.

Reticulitermes flavipes [1] = conditions: for INSECT ACTIVIIS 0-4: scale 0 death, 4 normal behaviour; for % Mortality: 0.15 % v/v on ground Sabal palm
Method: as §1

Reticulitermes flavipes [2] = conditions: 10 ppmai; 2 DA-A
[3] = 7.5 ppmai on ground Sabal palm, 5 DA-A
[4] = 75 ppmai on ground Sabal palm, 5 DA-A
[5] = 150 ppmai on ground Sabal palm, 5 DA-A
[6] = 300 ppmai on ground Sabal palm, 5 DA-A

Structure (SMILES): CNC(=O)c1cc(Cl)cc(C)c1NC(=O)c1cc(Br)nn1-c1ncccc1Cl [Chlorantraniliprole]
- TUNNEL LENGTH (Coptotermes formosanus; 1 ppmai, 2 DA-A): 4 CM
- INSECT ACTIVIIS 0-4 (Coptotermes formosanus; 1 ppmai, 2 DA-A): 3.3 0-4
- INSECT % MORTAL (Coptotermes formosanus; 1 ppmai, 7 DA-A): 5.4%
- INSECT ACTIVIIS 0-4 (Coptotermes formosanus; 1 ppmai, 7 DA-A): 3.8 0-4
- INSECT % MORTAL (Coptotermes formosanus; 1 ppmai, 9 DA-A): 2.3%
- INSECT % MORTAL (Coptotermes formosanus; 1 ppmai, 20 DA-A): 93.4%
- INSECT ACTIVIIS 0-4 (Coptotermes formosanus; 1 ppmai, 20 DA-A): 0.5 0-4
- TUNNEL LENGTH (Coptotermes formosanus; 10 ppmai, 2 DA-A): 4 CM
- INSECT ACTIVIIS 0-4 (Coptotermes formosanus; 10 ppmai, 2 DA-A): 4 0-4
- INSECT % MORTAL (Coptotermes formosanus; 10 ppmai, 7 DA-A): 1.3%
- INSECT ACTIVIIS 0-4 (Coptotermes formosanus; 10 ppmai, 7 DA-A): 3.3 0-4
- INSECT % MORTAL (Coptotermes formosanus; 10 ppmai, 9 DA-A): 1.5%
- INSECT % MORTAL (Coptotermes formosanus; 10 ppmai, 20 DA-A): 91.1%
- INSECT ACTIVIIS 0-4 (Coptotermes formosanus; 10 ppmai, 20 DA-A): 0.8 0-4
- TUNNEL LENGTH (Coptotermes formosanus; 50 ppmai, 2 DA-A): 1 CM
- INSECT ACTIVIIS 0-4 (Coptotermes formosanus; 50 ppmai, 2 DA-A): 1.5 0-4
- INSECT % MORTAL (Coptotermes formosanus; 50 ppmai, 7 DA-A): 23.2%
- INSECT ACTIVIIS 0-4 (Coptotermes formosanus; 50 ppmai, 7 DA-A): 1 0-4
- INSECT % MORTAL (Coptotermes formosanus; 50 ppmai, 9 DA-A): 90.8%
- INSECT % MORTAL (Coptotermes formosanus; 50 ppmai, 20 DA-A): 100%
- INSECT ACTIVIIS 0-4 (Coptotermes formosanus; 50 ppmai, 20 DA-A): 0 0-4
- TUNNEL LENGTH (Coptotermes formosanus; 100 ppmai, 2 DA-A): 1.5 CM
- INSECT ACTIVIIS 0-4 (Coptotermes formosanus; 100 ppmai, 2 DA-A): 1 0-4
- INSECT % MORTAL (Coptotermes formosanus; 100 ppmai, 7 DA-A): 60.5%
- INSECT ACTIVIIS 0-4 (Coptotermes formosanus; 100 ppmai, 7 DA-A): 1 0-4
- INSECT % MORTAL (Coptotermes formosanus; 100 ppmai, 9 DA-A): 98.3%
- INSECT % MORTAL (Coptotermes formosanus; 100 ppmai, 20 DA-A): 100%
- INSECT ACTIVIIS 0-4 (Coptotermes formosanus; 100 ppmai, 20 DA-A): 0 0-4
- TUNNEL LENGTH (Reticulitermes flavipes [1]; 1 ppmai, 2 DA-A): 4 CM
- INSECT ACTIVIIS 0-4 (Reticulitermes flavipes [1]; 1 ppmai, 2 DA-A): 4 0-4
- INSECT % MORTAL (Reticulitermes flavipes [1]; 1 ppmai, 7 DA-A): 0.8%
- INSECT ACTIVIIS 0-4 (Reticulitermes flavipes [1]; 1 ppmai, 7 DA-A): 4 0-4
- INSECT % MORTAL (Reticulitermes flavipes [1]; 1 ppmai, 9 DA-A): 2.4%
- INSECT % MORTAL (Reticulitermes flavipes [1]; 1 ppmai, 20 DA-A): 4.1%
- INSECT ACTIVIIS 0-4 (Reticulitermes flavipes [1]; 1 ppmai, 20 DA-A): 4 0-4
- INSECT ACTIVIIS 0-4 (Reticulitermes flavipes [1]; 10 ppmai, 2 DA-A): 3.3 0-4
- INSECT % MORTAL (Reticulitermes flavipes [1]; 10 ppmai, 7 DA-A): 0.2%
- INSECT ACTIVIIS 0-4 (Reticulitermes flavipes [1]; 10 ppmai, 7 DA-A): 4 0-4
- INSECT % MORTAL (Reticulitermes flavipes [1]; 10 ppmai, 9 DA-A): 0.5%
- INSECT % MORTAL (Reticulitermes flavipes [1]; 10 ppmai, 20 DA-A): 4.92%
- INSECT ACTIVIIS 0-4 (Reticulitermes flavipes [1]; 10 ppmai, 20 DA-A): 4 0-4
- TUNNEL LENGTH (Reticulitermes flavipes [1]; 50 ppmai, 2 DA-A): 2 CM
- INSECT ACTIVIIS 0-4 (Reticulitermes flavipes [1]; 50 ppmai, 2 DA-A): 2.3 0-4
- INSECT % MORTAL (Reticulitermes flavipes [1]; 50 ppmai, 7 DA-A): 13%
- INSECT ACTIVIIS 0-4 (Reticulitermes flavipes [1]; 50 ppmai, 7 DA-A): 2 0-4
- INSECT % MORTAL (Reticulitermes flavipes [1]; 50 ppmai, 9 DA-A): 94.7%
- INSECT % MORTAL (Reticulitermes flavipes [1]; 50 ppmai, 20 DA-A): 100%
- INSECT ACTIVIIS 0-4 (Reticulitermes flavipes [1]; 50 ppmai, 20 DA-A): 0 0-4
- TUNNEL LENGTH (Reticulitermes flavipes [1]; 100 ppmai, 2 DA-A): 1 CM
- INSECT ACTIVIIS 0-4 (Reticulitermes flavipes [1]; 100 ppmai, 2 DA-A): 1.3 0-4
- INSECT % MORTAL (Reticulitermes flavipes [1]; 100 ppmai, 7 DA-A): 15%
- INSECT ACTIVIIS 0-4 (Reticulitermes flavipes [1]; 100 ppmai, 7 DA-A): 1 0-4
- INSECT % MORTAL (Reticulitermes flavipes [1]; 100 ppmai, 9 DA-A): 100%
- INSECT % MORTAL (Reticulitermes flavipes [1]; 100 ppmai, 20 DA-A): 100%
- INSECT ACTIVIIS 0-4 (Reticulitermes flavipes [1]; 100 ppmai, 20 DA-A): 0 0-4
- TUNNEL LENGTH (Reticulitermes flavipes [2]): 4 CM

Structure (SMILES): O=C(NC(=O)c1c(F)cccc1F)Nc1cc(Cl)c(OC(F)(F)C(F)C(F)(F)F)cc1Cl (stereo not shown) [Lufenuron]
- % Mortality (Coptotermes formosanus; 4 DA-A): 4.38%
- % Mortality (Coptotermes formosanus; 7 DA-A): 7.5%
- % Mortality (Coptotermes formosanus; 11 DA-A): 14.38%
- % Mortality (Coptotermes formosanus; 18 DA-A): 21.25%
- % Mortality (Coptotermes formosanus; 25 DA-A): 45%
- % Mortality (Coptotermes formosanus; 32 DA-A): 93.8%
- % Mortality (Coptotermes formosanus; 41 DA-A): 100%
- % Mortality (Reticulitermes flavipes [1]; 4 DA-A): 11.25%
- % Mortality (Reticulitermes flavipes [1]; 7 DA-A): 50%
- % Mortality (Reticulitermes flavipes [1]; 11 DA-A): 51.25%
- % Mortality (Reticulitermes flavipes [1]; 18 DA-A): 51.25%
- % Mortality (Reticulitermes flavipes [1]; 25 DA-A): 51.88%
- % Mortality (Reticulitermes flavipes [1]; 32 DA-A): 68.75%
- % Mortality (Reticulitermes flavipes [1]; 41 DA-A): 70.63%
- % Mortality (Reticulitermes flavipes [1]; 53 DA-A): 86.25%
- % Mortality (Reticulitermes flavipes [1]; 63 DA-A): 96.25%

Structure (SMILES): COC(=O)N(C(=O)N1CO[C@@]2(C(=O)OC)Cc3cc(Cl)ccc3C2=N1)c1ccc(OC(F)(F)F)cc1 [Indoxacarb]
- % MORT (Coptotermes formosanus; [3]): 0%
- % MORT (Coptotermes formosanus; 7.5 ppmai on ground Sabal palm, 7 DA-A): 0%
- % MORT (Coptotermes formosanus; 7.5 ppmai on ground Sabal palm, 12 DA-A): 0%
- % MORT (Coptotermes formosanus; 7.5 ppmai on ground Sabal palm, 20 DA-A): 2.5%
- % MORT (Coptotermes formosanus; 7.5 ppmai on ground Sabal palm, 28 DA-A): 5%
- % MORT (Coptotermes formosanus; 7.5 ppmai on ground Sabal palm, 42 DA-A): 90%
- % MORT (Coptotermes formosanus; [4]): 0.013%
- % MORT (Coptotermes formosanus; 75 ppmai on ground Sabal palm, 7 DA-A): 0.038%
- % MORT (Coptotermes formosanus; 75 ppmai on ground Sabal palm, 12 DA-A): 11.68%
- % MORT (Coptotermes formosanus; 75 ppmai on ground Sabal palm, 20 DA-A): 35%
- % MORT (Coptotermes formosanus; 75 ppmai on ground Sabal palm, 28 DA-A): 93.8%
- % MORT (Coptotermes formosanus; 75 ppmai on ground Sabal palm, 42 DA-A): 100%
- % MORT (Coptotermes formosanus; [5]): 0%
- % MORT (Coptotermes formosanus; 150 ppmai on ground Sabal palm, 7 DA-A): 0.013%
- % MORT (Coptotermes formosanus; 150 ppmai on ground Sabal palm, 12 DA-A): 17.48%
- % MORT (Coptotermes formosanus; 150 ppmai on ground Sabal palm, 20 DA-A): 37.5%
- % MORT (Coptotermes formosanus; 150 ppmai on ground Sabal palm, 28 DA-A): 98.8%
- % MORT (Coptotermes formosanus; 150 ppmai on ground Sabal palm, 42 DA-A): 100%
- % MORT (Coptotermes formosanus; [6]): 0%
- % MORT (Coptotermes formosanus; 300 ppmai on ground Sabal palm, 7 DA-A): 0%
- % MORT (Coptotermes formosanus; 300 ppmai on ground Sabal palm, 12 DA-A): 17.5%
- % MORT (Coptotermes formosanus; 300 ppmai on ground Sabal palm, 20 DA-A): 93.8%
- % MORT (Coptotermes formosanus; 300 ppmai on ground Sabal palm, 28 DA-A): 100%
- % MORT (Coptotermes formosanus; 300 ppmai on ground Sabal palm, 42 DA-A): 100%
- % MORT (Reticulitermes flavipes [1]; 7.5 ppmai on ground Sabal palm, 3 DA-A): 9.66%
- % MORT (Reticulitermes flavipes [1]; [3]): 56.71%
- % MORT (Reticulitermes flavipes [1]; 7.5 ppmai on ground Sabal palm, 10 DA-A): 99.79%
- % MORT (Reticulitermes flavipes [1]; 75 ppmai on ground Sabal palm, 3 DA-A): 16.59%
- % MORT (Reticulitermes flavipes [1]; [4]): 87.91%
- % MORT (Reticulitermes flavipes [1]; 75 ppmai on ground Sabal palm, 10 DA-A): 100%
- % MORT (Reticulitermes flavipes [1]; 150 ppmai on ground Sabal palm, 3 DA-A): 22.94%
- % MORT (Reticulitermes flavipes [1]; [5]): 87.84%
- % MORT (Reticulitermes flavipes [1]; 150 ppmai on ground Sabal palm, 10 DA-A): 100%
- % MORT (Reticulitermes flavipes [1]; 300 ppmai on ground Sabal palm, 3 DA-A): 47.09%
- % MORT (Reticulitermes flavipes [1]; [6]): 98.42%
- % MORT (Reticulitermes flavipes [1]; 300 ppmai on ground Sabal palm, 10 DA-A): 100%

Structure (SMILES): CNC(=O)c1cc(C#N)cc(C)c1NC(=O)c1cc(Br)nn1-c1ncccc1Cl [Cyantraniliprole]
- % MORT (Coptotermes formosanus; 5 ppmai on ground Sabal palm, 5 DA-A): 0.5%
- % MORT (Coptotermes formosanus; 5 ppmai on ground Sabal palm, 11 DA-A): 1.2%
- % MORT (Coptotermes formosanus; 5 ppmai on ground Sabal palm, 19 DA-A): 1.2%
- % MORT (Coptotermes formosanus; 5 ppmai on ground Sabal palm, 37 DA-A): 1.2%
- % MORT (Coptotermes formosanus; 50 ppmai on ground Sabal palm, 5 DA-A): 3.9%
- % MORT (Coptotermes formosanus; 50 ppmai on ground Sabal palm, 11 DA-A): 100%
- % MORT (Coptotermes formosanus; 50 ppmai on ground Sabal palm, 19 DA-A): 100%
- % MORT (Coptotermes formosanus; 50 ppmai on ground Sabal palm, 37 DA-A): 100%
- % MORT (Coptotermes formosanus; 100 ppmai on ground Sabal palm, 5 DA-A): 49.3%
- % MORT (Coptotermes formosanus; 100 ppmai on ground Sabal palm, 11 DA-A): 100%
- % MORT (Coptotermes formosanus; 100 ppmai on ground Sabal palm, 19 DA-A): 100%
- % MORT (Coptotermes formosanus; 100 ppmai on ground Sabal palm, 37 DA-A): 100%
- % MORT (Coptotermes formosanus; 200 ppmai on ground Sabal palm, 5 DA-A): 80.1%
- % MORT (Coptotermes formosanus; 200 ppmai on ground Sabal palm, 11 DA-A): 100%
- % MORT (Coptotermes formosanus; 200 ppmai on ground Sabal palm, 19 DA-A): 100%
- % MORT (Coptotermes formosanus; 200 ppmai on ground Sabal palm, 37 DA-A): 100%
